System: A375 cells
Experiment: Scratch (wound healing) test, A375
Type: cell-based, human
Conditions: A375, treated cells, IC50 dose, 48 h; control decreased from 172 ± 69 to 127 ± 13
Method: It was observed that the wound in the control of the A375 cells decreased from 172 ± 69 μm to 127 ± 13 μm, compared to the treated cells where it stayed at 177 ± 32 μm. […] (Fig. 10A).To confirm this, the cell proliferation rate was determined after 72 h of incubation in the presence of 5 of the carboxyfluorescein succinimidyl ester (CFSE)-stained cells. […] These findings were further confirmed by fluorescence microscopy of 4′,6-diamidino-2-phenylindole (DAPI)-stained cells (Fig. 10C), for which predominantly large nuclei with scarce nucleoli characteristic for interphase were observed on treatment of A375 cells with 5[60]. In addition, sporadic oblong nuclei with condensed chromatin, typical for apoptosis, were also observed (25 ± 9%). On the other hand in the DAPI-stained 518A2 cells typical apoptotic shrunken nuclei and apoptotic bodies were dominant (60 ± 2%)[61]. The different modes of action on the two melanoma cell lines indicate that cell specific characteristics define the outcome of the treatment with 5. […] Recent data on the compensatory proliferation in response to induced apoptotic cell death in the tumor tissue even favor a nonaggressive approach in the therapy of advanced malignancy. […]
To quantify cell division rate, cells were incubated for 10 min at 37 °C in the presence of […]
subsequentl y quantified using flow c ytomet r y. […]

4-[4-(methylnitrooxy)phenyl]-3-(1,2-dicarba-closo-dodecaboranyl)furan-2(5 H)-one [Compound 5]
wound width in scratch test: 177 ± 32 μm

From publication PMC7076013 (Scientific Reports, 2020)
